Earlier results on two molecules are cited in US20050039221A1, “Phenotypic effects of ubiquinone deficiencies and methods of screening thereof” (priority 2001, published 2005).

For series [1] the following is noted: rodents.
A further series concerns complex I. The following applies: synthetic DMQ2.
A further series deals with complex II. The following applies: synthetic DMQ2.

For `COC1=C(OC)C(=O)C(C/C=C(\C)CC/C=C(\C)CC/C=C(\C)CC/C=C(\C)CC/C=C(\C)CC/C=C(\C)CC/C=C(\C)CC/C=C(\C)CC/C=C(\C)CCC=C(C)C)=C(C)C1=O` [UQ, Ubiquinone], the “Uptake of dietary UQ, share of the initially ingested ubiquinone” value in series [1] is on record as 2-3%.

On to `COC1=CC(=O)C(C)=C(C/C=C(\C)CCC=C(C)C)C1=O` [DMQ2], for which the “Function as co-factor for electron transport from complex I” value with complex I is recorded as “can function as a co-factor”. Moreover, the “Function as co-factor for electron transport from complex II” value in the series on complex II was “more poorly”.
